Assay results from patent US12298319B2, “Method for measuring alpha value of muscarinic M1 receptor positive allosteric modulators” (Takeda Pharmaceutical Company Limited, priority 2017, dated 2025).

Columns and labels:
human M1R = target: T1, human M1R (Homo sapiens, UniProt P11229); test: Ca2+ flux assay in CHO-K1 cells expressing human M1 receptors (EC20 ACh); format: cell-based; set-up: expressed in transfected cells; conditions: for EC50: potentiating EC20 ACh, read-out: IP value for human M1R
T1 sequence (P11229 1-460): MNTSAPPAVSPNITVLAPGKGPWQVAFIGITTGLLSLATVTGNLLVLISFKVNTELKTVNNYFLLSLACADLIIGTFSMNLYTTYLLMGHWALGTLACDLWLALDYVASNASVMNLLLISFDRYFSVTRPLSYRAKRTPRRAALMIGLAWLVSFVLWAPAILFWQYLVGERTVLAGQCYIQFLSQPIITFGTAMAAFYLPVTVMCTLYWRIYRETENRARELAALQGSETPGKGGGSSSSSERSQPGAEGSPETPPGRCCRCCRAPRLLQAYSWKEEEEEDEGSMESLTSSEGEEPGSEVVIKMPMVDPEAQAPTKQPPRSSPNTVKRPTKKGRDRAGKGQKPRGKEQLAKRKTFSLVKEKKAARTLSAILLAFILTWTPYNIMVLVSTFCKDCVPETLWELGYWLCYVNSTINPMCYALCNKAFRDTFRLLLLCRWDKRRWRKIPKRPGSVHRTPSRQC
Procedure: CHO-K1 cells expressing human M1 receptors were plated on a 96-well black clear bottom plate (Corning, New York, NY) at 30,000 cells/well, and cultured at 37° C. and 5% CO2 for 1 day. The medium was removed and the cells were incubated with calcium dye buffer (HBSS (Life Technologies, Carlsbad, CA), 20 mM HEPES (Life Technologies), 0.1% fatty acid-free BSA (Wako), 0.08% pluronic F127 (Dojindo Laboratories, Kumamoto, Japan), 2.5 μg/mL Fluo-4 (Dojindo Laboratories), 1.25 mM probenecid (Dojindo Laboratories)) for 30 min at 37° C. and 5% CO2. After 30 min incubation at room temperature, the cells were stimulated with various concentrations of test compounds dissolved in assay buffer (HBSS (Life Technologies), 20 mM HEPES (Life Technologies), 0.1% fatty acid-free BSA (Wako)) containing EC20 concentrations (0.8-1 nM) of ACh and Ca^2+ response was measured using CeilLux (PerkinElmer). For determination of positive allosteric modulation activity of M1PAMs, the response to EC20 ACh was set as the 0% response and the response to 10 μM ACh was set as the 100% response. The potency of M1PAMs was shown as the value of inflection point (IP). IP value and 95% confidence intervals were calculated by XLfit of GraphPad Prism 5 Software (GraphPad Software Inc., LaJolla, CA, USA) from the data expressed as % of control.

[1] = tested on: scopolamine-induced cognitive deficits in rats; test: Novel object recognition task (NORT), scopolamine-induced memory deficits; format: in vivo, rat; conditions: for minimal efficacy dose in rats (cognitive improvement): NORT, p.o.; for minimal efficacy dose in rats (cognitive improvement) / NDI: scopolamine-treated rats
Procedure: On the day before testing, Long Evans rats were allowed to habituate to the behavioral test room environment for over 1 h, and then they were allowed to habituate to the empty test box (a gray-colored polyvinyl chloride box (40×40×50 cm)) for 10 min individually. Testing was comprised of two 3-min trials called the acquisition and the retention trials. These trials were separated by a given inter-trial interval (ITI). On the testing day, in the acquisition trial, rats were allowed to explore two identical objects (A1 and A2) for 3 min. In the retention trial, rats were again allowed to explore a familiar object (A3) and a novel object (B) for 3 min. The object exploration was defined as rats' licking, sniffing or touching the object with limbs while sniffing. Leaning against the object to look upward, standing or sitting on the object was excluded. The exploration time of each object (A1, A2, A3 and B) in each trial was measured manually. Novel discrimination index (NDI) was calculated using the following equation: novel object interaction/total interaction×100(%).
The acquisition and the retention trials were separated by 4 h ITI. […] Scopolamine (0.1 mg/kg) was administered subcutaneously 30 min prior to the acquisition trial.
(§1) The acquisition and the retention trials were separated by 4 h ITI.
as §1

rats = test: Assessment of cholinergic side effects in rats; conditions: SD, rat, in vivo, po, 240 min
Procedure: SD Rats were placed individually into observation cages and acclimated for at least 1 h. […] The severity of diarrhea was scored as follows: 0, normal pellets; 1, wet but formed feces; 2, swollen or mucous feces; 3, severe watery diarrhea. For diarrhea, the number of rats and mice, in which more than or equal to 2 was scored, was counted. For fasciculation, the number of rats with marked fasciculation of both the upper and lower limbs was counted. For lacrimation, the number of rats, in which moderate to marked discharge (severer lacrimation than fluid around eyes) was induced, was counted. For salivation, the number of rats with severe salivation, but not just noticeably wet around mouth, was induced was counted. The maximum score during the observation was adopted.
(§2) For diarrhea, the number of rats scored more than or equal to 2 was counted. For fasciculation, the number of rats with marked fasciculation of both the upper and lower limbs was counted. For lacrimation, the number of rats in which moderate to marked discharge (severer lacrimation than fluid around eyes) was counted. For salivation, the number of rats with severe salivation, but not just noticeably wet around mouth, was counted. The maximum score during the observation was adopted. Data were presented as the number of incidence per total rats.
as §2, with “in which loose” for “scored more than”, “mucous stool, or diarrhea was induced” for “equal to 2”, “(severe” for “(severer”, “eyes) was caused” for “eyes)”, “mouth” for “mouth,”

For `Cn1cc(-c2ccc(Cc3cc4c(=O)n([C@H]5CCCC[C@@H]5O)cnc4c4ccccc34)cn2)cn1` [Compound C, 3-((1S,2S)-2-hydroxycyclohexyl)-6-((6-(1-methyl-1H-pyrazol-4-yl)pyridin-3-yl)methyl)benzo[h]quinazoline-4(3H)-one, reference compound], the EC50 (human M1R) was 0.62 nM, the “scopolamine-induced cognitive deficits in NORT” value ([1]; 0.1 and 0.3 mg/kg p.o., rats, P≤0.025) was “significantly ameliorated scopolamine-induced cognitive deficits” and the “minimal efficacy dose in rats (cognitive improvement)” value [1] was 0.1 mg/kg. For the same compound, the NDI ([1]; Compound C 0.03 mg/kg p.o. alone, Example 29) was 52.3%, the Diarrhea (rats; 0.01 mg/kg) was 0/6 (0%) and the Fasciculation (rats; 0.01 mg/kg) was 0/6 (0%). For the same compound, the Lacrimation (rats; 0.01 mg/kg) was 0/6 (0%), the Myosis (rats; 0.01 mg/kg) was 0/6 (0%) and the Salivation (rats; 0.01 mg/kg) was 0/6 (0%). For the same compound, the Diarrhea (rats; 0.03 mg/kg) was 0/6 (0%), the Fasciculation (rats; 0.03 mg/kg) was 0/6 (0%) and the Lacrimation (rats; 0.03 mg/kg) was 0/6 (0%). The Myosis (rats; 0.03 mg/kg) was 0/6 (0%), the Salivation (rats; 0.03 mg/kg) was 0/6 (0%) and the Diarrhea (rats; 0.1 mg/kg) was 3/6 (50%). The Fasciculation (rats; 0.1 mg/kg) was 0/6 (0%), the Lacrimation (rats; 0.1 mg/kg) was 0/6 (0%) and the Myosis (rats; 0.1 mg/kg) was 0/6 (0%). The Salivation (rats; 0.1 mg/kg) was 0/6 (0%), the Diarrhea (rats; 0.3 mg/kg) was 4/6 (67%) and the Fasciculation (rats; 0.3 mg/kg) was 0/6 (0%). The Lacrimation (rats; 0.3 mg/kg) was 0/6 (0%), the Myosis (rats; 0.3 mg/kg) was 0/6 (0%) and the Salivation (rats; 0.3 mg/kg) was 0/6 (0%). For the same compound, the “minimal diarrhea inducing dose in rats” value (rats) was 0.1 mg/kg.

`Cc1c(Cc2ccc(-n3cccn3)cc2)cc2c(c1F)CN([C@H]1COCC[C@@H]1O)C2=O` [Compound D, 4-fluoro-2-[(3S,4S)-4-hydroxytetrahydro-2H-pyran-3-yl]-5-methyl-6-[4-(1H-pyrazol-1-yl)benzyl]-2,3-dihydro-1H-isoindol-1-one] was tested, and the EC50 (human M1R) was 2.7 nM, the “M1R selectivity over other human muscarinic receptor subtypes” value (human M1R; vs M2-M5R) was “not less than 3700 fold” and the “NDI in NORT, scopolamine-induced deficits” value ([1]; 0.3, 1, and 3 mg/kg p.o., rats, P≤0.025) was “significantly increased NDI”. For the same compound, the “minimal efficacy dose in rats (cognitive improvement)” value [1] was 0.3 mg/kg, the NDI ([1]; 0.1 mg/kg p.o. alone, Example 28) was 54.1% and the NDI ([1]; Compound D 0.1 mg/kg p.o. alone, Example 31) was 56.8%. The Diarrhea (rats; 1 mg/kg) was 0/6 (0%), the Fasciculation (rats; 1 mg/kg) was 0/6 (0%) and the Lacrimation (rats; 1 mg/kg) was 0/6 (0%). For the same compound, the Myosis (rats; 1 mg/kg) was 0/6 (0%), the Salivation (rats; 1 mg/kg) was 0/6 (0%) and the Diarrhea (rats; 3 mg/kg) was 1/6 (17%). For the same compound, the Fasciculation (rats; 3 mg/kg) was 0/6 (0%), the Lacrimation (rats; 3 mg/kg) was 0/6 (0%) and the Myosis (rats; 3 mg/kg) was 0/6 (0%). For the same compound, the Salivation (rats; 3 mg/kg) was 0/6 (0%), the Diarrhea (rats; 10 mg/kg) was 5/6 (83%) and the Fasciculation (rats; 10 mg/kg) was 0/6 (0%). The Lacrimation (rats; 10 mg/kg) was 0/6 (0%), the Myosis (rats; 10 mg/kg) was 0/6 (0%) and the Salivation (rats; 10 mg/kg) was 0/6 (0%). The Diarrhea (rats; 30 mg/kg) was 4/6 (67%), the Fasciculation (rats; 30 mg/kg) was 0/6 (0%) and the Lacrimation (rats; 30 mg/kg) was 0/6 (0%). For the same compound, the Myosis (rats; 30 mg/kg) was 0/6 (0%), the Salivation (rats; 30 mg/kg) was 0/6 (0%) and the “minimal diarrhea inducing dose in rats” value (rats) was 10 mg/kg.
